Assay results: PMC12881674, “Activation of TRPV3 channels in bladder cancer cells stimulates ATP release” (Molecular Pharmacology, 2025)

Target: T1, TRPV3 in KU-19-19 cells (Homo sapiens, UniProt Q8NET8)
T1 construct: host or cells: KU-19-19
T1 sequence (Q8NET8 1-790): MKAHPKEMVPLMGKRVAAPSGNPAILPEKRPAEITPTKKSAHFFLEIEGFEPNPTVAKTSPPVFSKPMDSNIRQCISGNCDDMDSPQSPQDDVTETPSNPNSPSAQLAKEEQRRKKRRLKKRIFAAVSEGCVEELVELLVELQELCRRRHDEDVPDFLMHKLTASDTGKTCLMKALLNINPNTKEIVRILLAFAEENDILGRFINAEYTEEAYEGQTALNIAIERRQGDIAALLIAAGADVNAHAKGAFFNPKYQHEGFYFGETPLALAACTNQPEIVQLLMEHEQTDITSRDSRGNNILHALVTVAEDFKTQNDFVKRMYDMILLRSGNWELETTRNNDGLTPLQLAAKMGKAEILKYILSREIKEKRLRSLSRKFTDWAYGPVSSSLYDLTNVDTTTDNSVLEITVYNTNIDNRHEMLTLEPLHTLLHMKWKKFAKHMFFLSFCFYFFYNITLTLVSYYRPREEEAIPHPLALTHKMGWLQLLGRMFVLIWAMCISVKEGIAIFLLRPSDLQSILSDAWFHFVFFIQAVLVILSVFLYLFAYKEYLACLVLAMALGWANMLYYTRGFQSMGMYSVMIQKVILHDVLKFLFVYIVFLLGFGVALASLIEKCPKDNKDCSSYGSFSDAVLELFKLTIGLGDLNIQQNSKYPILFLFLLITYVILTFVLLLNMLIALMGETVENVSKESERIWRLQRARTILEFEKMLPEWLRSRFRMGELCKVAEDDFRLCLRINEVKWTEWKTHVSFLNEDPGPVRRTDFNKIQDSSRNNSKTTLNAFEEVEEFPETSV
Test: whole-cell patch-clamp recordings in KU-19-19 cells
Format: cell-based
Method: Supplementation of the cellular cholesterol content in KU-19-19 cells was performed by adding cholesterol-loaded methyl-β-cyclodextrin (MβCD) to the cells. Cholesterol was dissolved in ethanol (20 mg/mL) by heating at 65 °C for 15 minutes. The cholesterol solution was then added dropwise to a 250 mM MβCD solution prepared in phosphate-buffered solution (PBS; Sigma Aldrich) at a 1:4 (v/v) ratio, yielding a stock containing 200 mM MβCD-cholesterol. KU-19-19 cells were incubated for 15 minutes at 37 °C in HBS containing 2.5 mM MβCD-cholesterol. As a control, KU-19-19 cells were incubated in HBS without MβCD-cholesterol supplement under the same conditions. […]
Fig. 3 TRPV3 is functionally expressed in bladder cancer cells. (A–D) Activation of TRPV3 in KU-19-19 (A, B) and CAL-29 (C, D) bladder cancer cells by AV3-1, assessed by fura-2-based Ca^2+ assays. […] (B, D) Quantification of peak [Ca^2+]ᵢ responses from KU-19-19 (B) and CAL-29 (D) cells under the indicated treatment conditions. Statistical significance was determined using one-way ANOVA with Tukey post hoc analysis; ∗P < .05. […] Current amplitudes were recorded using voltage ramps from −100 mV to +100 mV (500-millisecond duration) such as in F and expressed as current density (pA/pF) measured at +100 mV and −100 mV. […] Statistical significance was determined using Kruskal-Wallis ANOVA followed by Conover test; ∗P < .05. […]

COC(=O)C12CN(Cc3ccccc3)CC1(C(=O)OC)CN(Cc1ccccc1)C2 (centres unmarked) [AV3-1] was tested, and the “currents under cholesterol-loaded conditions compared with untreated cells” value (50 μM AV3-1, KU-19-19 cells preincubated with 2.5 mM MβCD-cholesterol) was “substantially larger currents” and the “TRPV3 currents in KU-19-19 cells” value (50 μM AV3-1, repeated applications) was “robustly and reproducibly activated TRPV3 currents”.
